Measurements as given in patent US20140357512A1, “HISTONE DEACETYLASE (HDAC) BIOMARKERS IN MULTIPLE MYELOMA” (priority 2013, published 2014).

Tested on: human myeloma cell line MM.1S
Experiment: SILAC acetylated-lysine peptide profiling, HDAC inhibitor vs DMSO (light/heavy ratio)
Type: cell-based
Description: An embodiment of the invention comprises utilizing the SILAC method in order to quantitate changes in protein expression between two or more populations of cells. The SILAC method is a technique based on mass spectrometry that detects differences in protein abundance among samples using non-radioactive isotopic labeling. The SILAC method is known in the art, and described in detail in Ong et al., “Stable Isotope Labeling by Amino Acids in Cell Culture, SILAC, as a Simple and Accurate Approach to Expression Proteomics”, Molecular & Cellular Proteomics, vol. 1, pp. 376-386 (2002), which is incorporated herein by reference in its entirety.
Briefly, the SILAC method involves growing two populations of cells in cell culture. The first population of cells is grown in growth media containing normal amino acids (“normal media”). The second population of cells is grown in media lacking a standard essential amino acid (such as lysine), but is then supplemented with a non-radioactive, isotopically labeled form of that essential amino acid (such as lysine labeled with ^13C atoms, rather than normal ^12C atoms), which is called “heavy media”. When the two populations of cells are each growing in the medium, they incorporate the amino acids into all of their proteins. The growth of cells maintained in the heavy media is no different from that in normal media. All peptides containing the heavy amino acids are heavier than their normal counterparts. The cells from each of the two populations of cells are lysed. The lysates from each of the two cell populations are then combined. The combined cell lysates are then analyzed by mass spectrometry. Pairs of chemically identical peptides of different stable isotope composition can be differentiated in a mass spectrometer due to their difference in mass. The ratio of peak intensities in the mass spectrum for such peptide pairs reflects the abundance ratio for the two proteins.
This example describes SILAC studies that were performed to compare the effects of three different HDAC inhibitors (Compound A, Compound B, and tubastatin A) to a control on a human multiple myeloma cell line. The HDAC inhibitors were also compared amongst themselves to determine differences in their effects.
A human myeloma cell line MM.1S was grown using either ^12C (light) or ^13C (heavy) lysine containing culture medium. The “heavy” cells were treated with DMSO as the control, and the “light” cells were treated with a single HDAC inhibitor at 37° C. for 6 hours. The heavy and light cells were lysed, and the lysates were mixed in 1:1 ratio and digested with the protease trypsin. The acetylated lysine containing peptides (due to the action of the HDAC inhibitor) in the digested peptide pool were captured by a non-specific anti-acetylated lysine antibody cocktail (the antibodies identify both light and heavy acetylated peptides), and subjected to mass spectrometry analysis in order to identify thousands of individual peptides.
Thousands of peptides were identified in pairs (^12C and ^13C) due to their known mass differences. The amino acid sequence and quantitative ratio (Light/Heavy) of a given peptide in two differentially treated cell lysates were then determined and annotated with their possible protein (gene) sources.
As stated above, three HDAC inhibitors (Compound A, Compound B, and Tubastatin A) were used. Thus, the SILAC method was performed three times, with a different HDAC inhibitor compared to a control each time. Accordingly, there are three pairs of quantitative data in the table below, i.e., Compound A:DMSO, Compound B:DMSO, and Tubastatin A:DMSO. A cut-off of 1.30 fold of change (increase or decrease) was then used to determine “changed” or “+” in the table, and any peptides with a fold of change less than 1.3 fold were determined to be “unchanged” or “0” in the table. Those peptides that were not identified were marked as “NA” in the table. […]

Compound: O=C(NO)c1cnc(NC2(c3cccc(F)c3)CCCCC2)nc1 [Compound B, 2-((1-(3-fluorophenyl)cyclohexyl)amino)-N-hydroxypyrimidine-5-carboxamide]
- L/H ratio of acetylated peptide PDPAK(ac)SAPAPK(ac)K (SEQ ID NO: 16) (HIST1H2BO [6:12], log 2 scale, drug vs DMSO): 0.66
- light to heavy ratio (L/H ratio) of acetylated peptide SLNLK(ac)HIK (SEQ ID NO: 607) (HLA-B associated transcript 1 [188], gene SNORD84, DDX39B, inhibitor:DMSO): 0.00 log 2
- L/H ratio of acetylated peptide K(ac)[…] (SEQ ID NO: 42) (HMGB2 [30], log 2 scale, drug vs DMSO): 0.00
- L/H ratio of acetylated peptide (HMVMQK(ac)LLR (SEQ ID NO: 438), Isoform 1 of Poly(U)-binding-splicing factor PUF60 [454], PUF60): 0.71 log 2
- L/H ratio of acetylated peptide RGEEGHDPK(ac)EPEQLR (SEQ ID NO: 43) (HNRNPA3 [29], log 2 scale, drug vs DMSO): 0.00
- L/H ratio of acetylated peptide […](ac)WQSLK (SEQ ID NO: 44) (HNRNPM [83], log 2 scale, drug vs DMSO): 0.00
- L/H ratio of acetylated peptide AAEVLNK(ac)HSLSGRPLK (SEQ ID NO: 3) (HNRNPM [134], log 2 scale, drug vs DMSO): −0.74
- L/H ratio of acetylated peptide VK(ac)VLFVR (SEQ ID NO: 45) (HNRNPR [341], log 2 scale, drug vs DMSO): 0.00
- L/H ratio of acetylated peptide […](ac)YSR (SEQ ID NO: 46) (HNRNPU [246], log 2 scale, drug vs DMSO): 0.00
- L/H ratio of acetylated peptide TTWVTK(ac)HAAENPGK (SEQ ID NO: 47) (HNRNPU [497], log 2 scale, drug vs DMSO): 0.00
- L/H ratio of acetylated peptide NK(ac)EIFLR (SEQ ID NO: 52) (HSP90B1 [97], log 2 scale, drug vs DMSO): 0.00
- L/H ratio of acetylated peptide […](ac)IR (SEQ ID NO: 49) (HSP90B1 [114], log 2 scale, drug vs DMSO): 0.00
- L/H ratio of acetylated peptide ETLQQHK(ac)LLK (SEQ ID NO: 50) (HSP90B1 [455], log 2 scale, drug vs DMSO): 0.00
- L/H ratio of acetylated peptide IADDK(ac)YNDTFWK (SEQ ID NO: 51) (HSP90B1 [479], log 2 scale, drug vs DMSO): 0.00
- L/H ratio of acetylated peptide […](ac)R (SEQ ID NO: 54) (HSPA5 [96], log 2 scale, drug vs DMSO): 0.00
- L/H ratio of acetylated peptide […](ac)R (SEQ ID NO: 55) (HSPA8 [71], log 2 scale, drug vs DMSO): 0.00
- L/H ratio of acetylated peptide (HSPEDPEK(ac)YSCFALFVK (SEQ ID NO: 432), Isoform 1 of DNA-dependent protein kinase catalytic subunit [700], PRKDC): −0.41 log 2
- L/H ratio of acetylated peptide (HTENVAK(ac)[…] (SEQ ID NO: 384), Transcriptional repressor CTCF [436], CTCF): −0.66 log 2
- light to heavy ratio (L/H ratio) of acetylated peptide […](ac)R (SEQ ID NO: 267) (Heat shock 70 kDa protein 1A/1B [71], HSPA1B, HSPA1A, drug:DMSO): 0.00 log 2
- light to heavy ratio (L/H ratio), log 2 scale, acetylated peptide TEMDWVLK(ac)[…] (SEQ ID NO: 797) (Heterogeneous nuclear ribonucleoprotein F [98], gene HNRNPF, drug:DMSO): 0.00
- light to heavy ratio (L/H ratio) of acetylated peptide YEK(ac)DIAAYR (SEQ ID NO: 595) (High mobility group protein B2 [157], gene HMGB2, inhibitor:DMSO): 0.00 log 2
- light to heavy ratio (L/H ratio), log 2 scale, acetylated peptide K(ac)AINK(ac)AQK (SEQ ID NO: 793) (Histone H2B type 1-M [17:21], gene HIST1H2BM, drug:DMSO): 0.00
- light to heavy ratio (L/H ratio) of acetylated peptide PEPAK(ac)SAPAPK(ac)K (SEQ ID NO: 309) (Histone H2B type 2-E [6:12], HIST2H2BE, drug:DMSO): 0.00 log 2
- light to heavy ratio (L/H ratio) of acetylated peptide K(ac)STGGK(ac)APR (SEQ ID NO: 310) (Histone H3.2 [10:15], HIST2H3D, HIST2H3A, HIST2H3C, drug:DMSO): 0.00 log 2
- light to heavy ratio (L/H ratio) of acetylated peptide GK(ac)GGK(ac)GLGK (SEQ ID NO: 311) (Histone H4 [6:9], HIST2H4B, HIST1H4C and other H4 genes, drug:DMSO): 0.00 log 2
- light to heavy ratio (L/H ratio) of acetylated peptide GLGK(ac)GGAK(ac)R (SEQ ID NO: 312) (Histone H4 [13:17], HIST2H4B, HIST1H4C and other H4 genes, drug:DMSO): 0.00 log 2
- light to heavy ratio (L/H ratio) of acetylated peptide GLGK(ac)GGAKR (SEQ ID NO: 313) (Histone H4 [13], HIST2H4B, HIST1H4C and other H4 genes, drug:DMSO): 0.00 log 2
- light to heavy ratio (L/H ratio) of acetylated peptide DGLQNEK(ac)NIVSTPVK (SEQ ID NO: 268) (Hydroxymethylglutaryl-CoA lyase mitochondrial [48], HMGCL, drug:DMSO): 0.00 log 2
- light to heavy ratio (L/H ratio) of acetylated peptide K(ac)[…] (SEQ ID NO: 594) (Hydroxymethylglutaryl-CoA lyase mitochondrial [137], gene HMGCL, inhibitor:DMSO): 0.00 log 2
- L/H ratio of acetylated peptide (IAVEAQNK(ac)YER (SEQ ID NO: 457), Nucleoprotein TPR [1081], TPR): 0.63 log 2
- L/H ratio of acetylated peptide (IDYGEYMDK(ac)NNVR (SEQ ID NO: 454), Single-stranded DNA-binding protein mitochondrial [122], SSBP1): −0.52 log 2
- light to heavy ratio (L/H ratio) of acetylated peptide, log 2 scale (IGK(ac)[…] (SEQ ID NO: 236), Thioredoxin domain-containing protein 5 [244], TXNDC5, MUTED, MUTED-TXNDC5): 0.00
